Assay results published in publication PMC8767159, “Multiparameter Optimization of Trypanocidal Cruzain Inhibitors With In Vivo Activity and Favorable Pharmacokinetics” (Frontiers in Pharmacology, 2022).

Experiments:
[1] = Parallel artificial membrane permeability assay (PAMPA); format: in vitro ADME; parameters: PAMPA: unit: 1e-6 cm/s; settings: for PAMPA: unit not given
Method: The permeability of the compounds was assessed using the PAMPA method ([Yu et al., 2015]). The test compounds were dissolved in DMSO to a concentration of 5 mM. Next, the compounds were diluted in a stock plate in saline phosphate buffer (PBS), pH 6.5, containing 1% DMSO to a concentration of 1 µM. Then, 300 µl of each test compound was added to the donor plate. Afterward, 200 µl of PBS buffer, pH 7.4, was added to the acceptor plate. The donor plate was attached to the acceptor plate. The assembled acceptor-donor plate was then incubated at 37°C for 5 h under gentle agitation. To analyze the concentration of the compounds by mass spectrometry, two analysis plates (one for the donor and another for the acceptor plate) containing 300 μl of MEOH:ACN 50:50 were prepared. To the donor analysis plate, 90 µl of PBS, pH 6.5, and 10 µl of the content of the donor plate were added. For the acceptor analysis plate, 100 µl of the content of the acceptor plate was added. To monitor any potential decomposition/intrinsic instability of the test compounds in solution, samples from the stock plate were subjected to LC-MS/MS. The compounds that presented Pe ≥ 1.5 × 10^−6 cm/s were classified as permeable, while compounds that presented Pe < 1.5 × 10^−6 cm/s were considered poorly permeable or nonpermeable.

[2] = Experimental distribution coefficient (eLogD) by LC retention time; format: physicochemical; settings: for chromatographic logD: C18 column (LC retention time); for eLogD: Table S5
Method: For the eLogD assays ([Waring, 2010]), each compound (5 μl) from a 5 mM stock solution was diluted in 245 μl of a solution containing buffers A (5% MeOH, 10 mM ammonium acetate, pH 7.4) and B (100% MeOH, pH 7.4) (50:50). Nine control compounds with known eLogD and column retention times (acyclovir, atenolol, antipyrine, fluconazole, metoprolol, carbamazepine, ketoconazole, tolnaftate, and amiodarone; eLogD values ranging from −1.86 to 6.1) were subjected to LC-MS/MS in triplicate before and after the analysis of the test compounds. Retention times were recorded for each control and test compound in a C18 column. The retention time of each control compound was plotted against the respective eLogD values described in the literature ([Lombardo et al., 2002]; [Lombardo et al., 2004]; [Alelyunas et al., 2010]). The resulting linear equation (y = mx + b) was used to calculate the eLogD values of the test compounds, in which x is the retention time in minutes and y is the eLogD value.

[3] = In vitro metabolic stability in mouse liver microsomes; format: in vitro ADME; settings: mouse, liver microsomes
How it was run: (§1)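 Compounds incubated at 37°C with mouse or human liver microsomes (0.25 mg/ml) in potassium phosphate buffer with NADPH; samples quenched in ACN/MeOH at 0, 5, 10, 15, 20 and 30 min. Parent remaining by LC-MS/MS relative to 0 min; T½ = ln(2)/k, CLint = k*1000/0.25 (μL/min/mg).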

[4] = In vitro metabolic stability in human liver microsomes; format: in vitro ADME; settings: human, liver microsomes
How it was run: as §1

[5] = PAMPA, Table 3, donor pH 6.5, acceptor pH 7.4, 5 h
[6] = Table S5, CLint/fu, read-out: CLint_u (L/h/kg) Mouse (converted)
[7] = Table S5, read-out: CLint (L/h/kg) Mouse (converted)
[8] = Table S5, CLint/fu, read-out: CLint_u (L/h/kg) Human (converted)
[9] = Table S5, read-out: CLint (L/h/kg) Human (converted)
[10] = Table 5, CLint/fu, read-out: CLint_u (L/h/kg) mouse (converted)
[11] = Table 5, read-out: CLint (L/h/kg) mouse (converted)
[12] = Table 5, CLint/fu, read-out: CLint_u (L/h/kg) human (converted)
[13] = Table 5, read-out: CLint (L/h/kg) human (converted)

SMILES	Papp at 5 h, 1 µM [1, 5] [×10⁻⁶ cm/s]	PAMPA ([1]; Table S5)	chromatographic logD ([2]; pH 7.4, Table 3, pH 7.4)	eLogD [2]	CLint scaled at 5 µM [3, 6] [L/h/kg]	CLint scaled at 5 µM [3, 7] [L/h/kg]	CLint scaled at 5 µM [4, 8] [L/h/kg]	CLint scaled at 5 µM [4, 9] [L/h/kg]	Papp at 5 h, 1 µM ([1]; Table S5, unit inferred) [×10⁻⁶ cm/s]	chromatographic logD ([2]; pH 7.4, Table S5)	Papp at 5 h, 1 µM ([1]; PAMPA, Table 5) [×10⁻⁶ cm/s]	chromatographic logD ([2]; pH 7.4, Table 5)	CLint scaled at 5 µM [3, 10] [L/h/kg]	CLint scaled at 5 µM [3, 11] [L/h/kg]	CLint scaled at 5 µM [4, 12] [L/h/kg]	CLint scaled at 5 µM [4, 13] [L/h/kg]
CC(=O)Nc1ccc(OCC(=O)NCCc2nc3ccccc3[nH]2)cc1 [Compound 2]	0.21	0.21	1.92	1.92	< 4.43	< 4.43	< 1.5	< 1.5								
Cc1ccccc1OCC(=O)NCCc1nc2ccccc2n1CCOc1ccccc1Br [Compound 22]						487	3870	123	0.04	4.81						
O=C(COc1ccccc1)NCCc1nc2ccccc2n1CCCOc1ccccc1 [Compound 24]	2.29	2.29	4.45	4.45	1850	501	524	142								
O=C(COc1ccc(N2C(=O)CCC2=O)cc1)NCCc1nc2ccccc2[nH]1 [Compound 4]					20.9	20.8	< 1.51	< 1.5	0.17	1.59						
O=C(COc1ccc2ccccc2c1)NCCc1nc2ccccc2[nH]1 [Compound 35]											0.7	3.9	1170	565	43.9	21.1
COc1ccc2cc(OCC(=O)NCCc3nc4ccccc4[nH]3)ccc2c1 [Compound 12]	0.34	0.34	3.89	3.89	1610	177	233	25.6								
COCCn1c(CCNC(=O)COc2ccccc2)nc2ccccc21 [Compound 29]					235	235	23	23	9.35	3.13						
Cc1ccccc1OCC(=O)NCCc1nc2ccccc2[nH]1 [Compound 17]											5.9	3.6	392	300	31.2	23.9
C=CCCn1c(CCNC(=O)COc2ccccc2Cl)nc2ccccc21 [Compound 38]											7.7	4.1	2030	934	501	230
O=C(COc1cccc([N+](=O)[O-])c1)NCCc1nc2ccccc2[nH]1 [Compound 8]	2.17	2.17	2.98	2.98	67.5	67.5	6.58	6.58								
NC(=O)Cn1c(CCNC(=O)COc2ccccc2)nc2ccccc21 [Compound 28]	0.71	0.71	2.16	2.16	5.43	5.34	< 1.53	< 1.5								
O=C(COc1ccccc1)NCCc1nc2ccccc2n1CCOc1ccccc1Br [Compound 19]					2580	305	949	112	0.08	4.5						
N#Cc1ccccc1OCC(=O)NCCc1nc2ccccc2[nH]1 [Compound 31]											2.2	2.6	87.9	74.6	6.6	5.6
Cc1ccccc1OCC(=O)NCCc1nc2ccccc2o1 [Compound 37]											19.7	3.9	874	745	26.9	22.9
O=C(COc1ccccc1[N+](=O)[O-])NCCc1nc2ccccc2[nH]1 [Compound 32]											4.9	3.6	808	526	39.2	25.5
O=C(COc1ccccc1Br)NCCc1nc2ccccc2[nH]1 [Compound 18]											5.6	3.9	334	191	16	9.2
O=C(COc1ccccc1)NCCc1nc2ccccc2n1CCOc1ccccc1 [Compound 20]	4.3	4.30	4.24	4.24	1200	489	301	123								
O=C(COc1ccc2ccccc2c1Br)NCCc1nc2ccccc2[nH]1 [Compound 34]											0.3	4.4		607	540	49.9
Nc1cccc(OCC(=O)NCCc2nc3ccccc3[nH]2)c1 [Compound 9]	0.38	0.38	1.88	1.88	22.8	22.7	11.1	11								
O=C(COc1ccc(Br)cc1)NCCc1nc2ccccc2[nH]1 [Compound 33]											0.7	2.8	193	161	12.5	10.4
O=C(Cn1ccnc1[N+](=O)[O-])NCc1ccccc1 [BZ, benznidazole, reference compound]	3.17	3.17	0.84	0.84	4.43	4.43	1.5	1.5			3.2	0.8	4.4	4.4	1.5	1.5
C=CCCn1c(CCNC(=O)COc2ccccc2)nc2ccccc21 [Compound 27]	9.06	9.06	3.75	3.75	756	650	70.2	60.4								
